Assay results from ChEMBL document CHEMBL3137667, “[Drug-induced liver injury; fourteenth updated edition of the bibliographic database of liver injuries and related drugs]” (Gastroenterol Clin Biol, 2004).

Columns and labels:
[1] = human
[2] = Proposed mechanism(s) of liver damage. [column 'MEC' in source]; details: human
[3] = Highest frequency of moderate liver toxicity observed during clinical trials, expressed as a percentage. [column '% BIOL' in source]; details: human
[4] = human; remark: listed apart in the source
[5] = human; remark: listed apart in the source
[6] = human; remark: listed apart in the source
[7] = human; remark: listed apart in the source
[8] = human; remark: listed apart in the source
[9] = human; remark: listed apart in the source
[10] = human; remark: listed apart in the source
[11] = human, serum, 4383 h
[12] = human, serum
[13] = Highest frequency of acute liver toxicity observed during clinical trials, expressed as a percentage. [column '% AIGUE' in source]; details: human
[14] = human; remark: listed apart in the source
[15] = human, serum; remark: listed apart in the source
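Wherever Hepatotoxicity (association with vascular disease) is given: count of indexed literature references reporting vascular liver injury in humans, e.g. peliosis hepatitis, hepatic veno-occlusive disease or Budd-Chiari syndrome.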
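Wherever Hepatotoxicity (benign tumour) is given: value is a count of indexed literature references citing a benign tumour confirmed by histopathology.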
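Wherever Hepatotoxicity (choleostasis) is given: human cholestatic liver injury, shown by histopathology or by peak ALT or AST elevation over alkaline phosphatase ratio below 2, value counts indexed literature reports.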
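Wherever Hepatotoxicity (chronic liver disease) is given: chronic liver injury confirmed by histopathology or persistently raised serum aminotransferase activity beyond 6 months, value given as the count of indexed literature references.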
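Wherever Hepatotoxicity (cirrhosis) is given: value is a count of indexed literature references reporting cirrhosis confirmed by histopathology.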
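Wherever Hepatotoxicity (cytolytic) is given: human cytolytic liver injury, shown by histopathology or by a ratio above 5 of peak ALT or AST elevation to alkaline phosphatase elevation, value counts indexed references.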
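Wherever Hepatotoxicity (granulomatous hepatitis) is given: value is a count of indexed literature references reporting granulomatous liver disease confirmed by histopathology.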
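Wherever Hepatotoxicity (malignant tumour) is given: malignant tumour confirmed by histopathology, value gives the count of indexed literature references reporting it.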
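Wherever Hepatotoxicity (severe hepatitis) is given: human clinical data: severe hepatitis, meaning potentially life-threatening liver failure or clinically observed cases, the value counts how many indexed literature references report it.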
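Wherever Hepatotoxicity (steatosis) is given: steatosis confirmed by histopathology, value is the count of indexed references.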

With `CNCCNc1ccc2c3c(nn2CCNCCO)-c2c(O)ccc(O)c2C(=O)c13` [TELOXANTRONE] the “Hepatotoxicity (cytolytic)” value [1] was 1, the “Hepatotoxicity (mechanism)” value [2] was “Dose-dependant” and the “Hepatotoxicity (moderate)” value [3] was 36.8%. For the same compound, the “Hepatotoxicity (granulomatous hepatitis)” value [4] was 0, the “Hepatotoxicity (severe hepatitis)” value [5] was 0 and the “Hepatotoxicity (choleostasis)” value [6] was 1. For the same compound, the “Hepatotoxicity (association with vascular disease)” value [7] was 0, the “Hepatotoxicity (steatosis)” value [8] was 0 and the “Hepatotoxicity (benign tumour)” value [9] was 0. The “Hepatotoxicity (malignant tumour)” value [10] was 0, the “Hepatotoxicity (chronic liver disease)” value [11] was 0 and the “Hepatotoxicity (acute)” value [12] was 1. The “Hepatotoxicity (acute)” value [13] was 10.5%, the “Hepatotoxicity (cirrhosis)” value [14] was 0 and the “Hepatotoxicity (moderate)” value [15] was 2.

In the case of `C[C@@](O)(/C=C/[C@H]1CC=CC(=O)O1)[C@@H](C[C@@H](O)\C=C/C=C\C=C\CO)OP(=O)(O)O` [FOSTRIECIN], the “Hepatotoxicity (cytolytic)” value [1] was 0, the “Hepatotoxicity (mechanism)” value [2] was “Dose-dependant” and the “Hepatotoxicity (moderate)” value [3] was 5%. For the same compound, the “Hepatotoxicity (granulomatous hepatitis)” value [4] was 0, the “Hepatotoxicity (severe hepatitis)” value [5] was 0 and the “Hepatotoxicity (choleostasis)” value [6] was 0. For the same compound, the “Hepatotoxicity (association with vascular disease)” value [7] was 0, the “Hepatotoxicity (steatosis)” value [8] was 0 and the “Hepatotoxicity (benign tumour)” value [9] was 0. The “Hepatotoxicity (malignant tumour)” value [10] was 0, the “Hepatotoxicity (chronic liver disease)” value [11] was 0 and the “Hepatotoxicity (acute)” value [12] was 0. The “Hepatotoxicity (acute)” value [13] was 0%, the “Hepatotoxicity (cirrhosis)” value [14] was 0 and the “Hepatotoxicity (moderate)” value [15] was 1.

For `C=CCC1(C(C)C#CCC)C(=O)N=C(O)N(C)C1=O` (stereo not given) [METHOHEXITAL], the “Hepatotoxicity (cytolytic)” value [1] was 0, the “Hepatotoxicity (mechanism)” value [2] was “Dose-dependant” and the “Hepatotoxicity (moderate)” value [3] was 0%. The “Hepatotoxicity (granulomatous hepatitis)” value [4] was 0, the “Hepatotoxicity (severe hepatitis)” value [5] was 0 and the “Hepatotoxicity (choleostasis)” value [6] was 0. For the same compound, the “Hepatotoxicity (association with vascular disease)” value [7] was 0, the “Hepatotoxicity (steatosis)” value [8] was 0 and the “Hepatotoxicity (benign tumour)” value [9] was 0. For the same compound, the “Hepatotoxicity (malignant tumour)” value [10] was 0, the “Hepatotoxicity (chronic liver disease)” value [11] was 0 and the “Hepatotoxicity (acute)” value [12] was 0. For the same compound, the “Hepatotoxicity (acute)” value [13] was 0%, the “Hepatotoxicity (cirrhosis)” value [14] was 0 and the “Hepatotoxicity (moderate)” value [15] was 1.

For `CC(C)(O/N=C(\C(=O)N[C@@H]1C(=O)N2C(C(=O)[O-])=C(C[n+]3ccccc3)CS[C@H]12)c1csc(N)n1)C(=O)O` [CEFTAZIDIME], the “Hepatotoxicity (cytolytic)” value [1] was 0, the “Hepatotoxicity (mechanism)” value [2] was “Dose-dependant” and the “Hepatotoxicity (moderate)” value [3] was 35.7%. The “Hepatotoxicity (granulomatous hepatitis)” value [4] was 0, the “Hepatotoxicity (severe hepatitis)” value [5] was 0 and the “Hepatotoxicity (choleostasis)” value [6] was 2. For the same compound, the “Hepatotoxicity (association with vascular disease)” value [7] was 0, the “Hepatotoxicity (steatosis)” value [8] was 0 and the “Hepatotoxicity (benign tumour)” value [9] was 0. For the same compound, the “Hepatotoxicity (malignant tumour)” value [10] was 0, the “Hepatotoxicity (chronic liver disease)” value [11] was 0 and the “Hepatotoxicity (acute)” value [12] was 2. The “Hepatotoxicity (acute)” value [13] was 2.5%, the “Hepatotoxicity (cirrhosis)” value [14] was 0 and the “Hepatotoxicity (moderate)” value [15] was 77.

With `CCN(CC)CC[n+]1ccc2c(C)c3[nH]c4ccc(O)cc4c3c(C)c2c1.[Cl-]` [DATELLIPTIUM CHLORIDE] the “Hepatotoxicity (cytolytic)” value [1] was 2, the “Hepatotoxicity (mechanism)” value [2] was “Dose-dependant” and the “Hepatotoxicity (moderate)” value [3] was 66.7%. For the same compound, the “Hepatotoxicity (granulomatous hepatitis)” value [4] was 0, the “Hepatotoxicity (severe hepatitis)” value [5] was 0 and the “Hepatotoxicity (choleostasis)” value [6] was 0. The “Hepatotoxicity (association with vascular disease)” value [7] was 0, the “Hepatotoxicity (steatosis)” value [8] was 0 and the “Hepatotoxicity (benign tumour)” value [9] was 0. The “Hepatotoxicity (malignant tumour)” value [10] was 0, the “Hepatotoxicity (chronic liver disease)” value [11] was 0 and the “Hepatotoxicity (acute)” value [12] was 2. The “Hepatotoxicity (acute)” value [13] was 7.1%, the “Hepatotoxicity (cirrhosis)” value [14] was 0 and the “Hepatotoxicity (moderate)” value [15] was 2.

In the case of INTERFERON ALFA-N1, the “Hepatotoxicity (cytolytic)” value [1] was 0, the “Hepatotoxicity (mechanism)” value [2] was “Dose-dependant” and the “Hepatotoxicity (moderate)” value [3] was 42%. The “Hepatotoxicity (granulomatous hepatitis)” value [4] was 0, the “Hepatotoxicity (severe hepatitis)” value [5] was 0 and the “Hepatotoxicity (choleostasis)” value [6] was 0. For the same compound, the “Hepatotoxicity (association with vascular disease)” value [7] was 0, the “Hepatotoxicity (steatosis)” value [8] was 0 and the “Hepatotoxicity (benign tumour)” value [9] was 0. The “Hepatotoxicity (malignant tumour)” value [10] was 0, the “Hepatotoxicity (chronic liver disease)” value [11] was 0 and the “Hepatotoxicity (acute)” value [12] was 0. The “Hepatotoxicity (acute)” value [13] was 0%, the “Hepatotoxicity (cirrhosis)” value [14] was 0 and the “Hepatotoxicity (moderate)” value [15] was 15.

In the case of `CO[C@@H]1[C@@H](OC(N)=O)[C@@H](O)[C@H](Oc2ccc3c(O)c(NC(=O)c4ccc(O)c(CC=C(C)C)c4)c(=O)oc3c2C)OC1(C)C` [NOVOBIOCIN], the “Hepatotoxicity (cytolytic)” value [1] was 2, the “Hepatotoxicity (mechanism)” value [2] was “Allergic, Dose-dependant” and the “Hepatotoxicity (moderate)” value [3] was 40%. The “Hepatotoxicity (granulomatous hepatitis)” value [4] was 0, the “Hepatotoxicity (severe hepatitis)” value [5] was 2 and the “Hepatotoxicity (choleostasis)” value [6] was 3. For the same compound, the “Hepatotoxicity (association with vascular disease)” value [7] was 0, the “Hepatotoxicity (steatosis)” value [8] was 0 and the “Hepatotoxicity (benign tumour)” value [9] was 0. The “Hepatotoxicity (malignant tumour)” value [10] was 0, the “Hepatotoxicity (chronic liver disease)” value [11] was 0 and the “Hepatotoxicity (acute)” value [12] was 5. For the same compound, the “Hepatotoxicity (acute)” value [13] was 0%, the “Hepatotoxicity (cirrhosis)” value [14] was 0 and the “Hepatotoxicity (moderate)” value [15] was 2.

With `O=C[C@H](O)[C@@H](O)[C@H](O)[C@H](O)CO[C@H]1O[C@H](CO[C@H]2O[C@H](CO)[C@@H](O)[C@H](O)[C@H]2O)[C@@H](O)[C@H](O)[C@H]1O` [DEXTRAN] the “Hepatotoxicity (cytolytic)” value [1] was 0, the “Hepatotoxicity (mechanism)” value [2] was “Dose-dependant” and the “Hepatotoxicity (moderate)” value [3] was 43.7%. For the same compound, the “Hepatotoxicity (granulomatous hepatitis)” value [4] was 0, the “Hepatotoxicity (severe hepatitis)” value [5] was 0 and the “Hepatotoxicity (choleostasis)” value [6] was 0. The “Hepatotoxicity (association with vascular disease)” value [7] was 0, the “Hepatotoxicity (steatosis)” value [8] was 0 and the “Hepatotoxicity (benign tumour)” value [9] was 0. The “Hepatotoxicity (malignant tumour)” value [10] was 0, the “Hepatotoxicity (chronic liver disease)” value [11] was 0 and the “Hepatotoxicity (acute)” value [12] was 0. The “Hepatotoxicity (acute)” value [13] was 0%, the “Hepatotoxicity (cirrhosis)” value [14] was 0 and the “Hepatotoxicity (moderate)” value [15] was 2.

For `CC(Cc1ccccc1)NCCC(c1ccccc1)c1ccccc1` (stereo not given) [PRENYLAMINE], the “Hepatotoxicity (cytolytic)” value [1] was 0, the “Hepatotoxicity (mechanism)” value [2] was “Dose-dependant” and the “Hepatotoxicity (moderate)” value [3] was 7.7%. The “Hepatotoxicity (granulomatous hepatitis)” value [4] was 0, the “Hepatotoxicity (severe hepatitis)” value [5] was 0 and the “Hepatotoxicity (choleostasis)” value [6] was 0. For the same compound, the “Hepatotoxicity (association with vascular disease)” value [7] was 0, the “Hepatotoxicity (steatosis)” value [8] was 0 and the “Hepatotoxicity (benign tumour)” value [9] was 0. For the same compound, the “Hepatotoxicity (malignant tumour)” value [10] was 0, the “Hepatotoxicity (chronic liver disease)” value [11] was 0 and the “Hepatotoxicity (acute)” value [12] was 0. For the same compound, the “Hepatotoxicity (acute)” value [13] was 0%, the “Hepatotoxicity (cirrhosis)” value [14] was 0 and the “Hepatotoxicity (moderate)” value [15] was 1.

With PEGLOTICASE the “Hepatotoxicity (cytolytic)” value [1] was 0, the “Hepatotoxicity (mechanism)” value [2] was “Dose-dependant” and the “Hepatotoxicity (moderate)” value [3] was 3.7%. The “Hepatotoxicity (granulomatous hepatitis)” value [4] was 0, the “Hepatotoxicity (severe hepatitis)” value [5] was 0 and the “Hepatotoxicity (choleostasis)” value [6] was 0. For the same compound, the “Hepatotoxicity (association with vascular disease)” value [7] was 0, the “Hepatotoxicity (steatosis)” value [8] was 0 and the “Hepatotoxicity (benign tumour)” value [9] was 0. The “Hepatotoxicity (malignant tumour)” value [10] was 0, the “Hepatotoxicity (chronic liver disease)” value [11] was 0 and the “Hepatotoxicity (acute)” value [12] was 0. The “Hepatotoxicity (acute)” value [13] was 0%, the “Hepatotoxicity (cirrhosis)” value [14] was 0 and the “Hepatotoxicity (moderate)” value [15] was 1.

With INTERLEUKIN 6 the “Hepatotoxicity (cytolytic)” value [1] was 0, the “Hepatotoxicity (mechanism)” value [2] was “Dose-dependant” and the “Hepatotoxicity (moderate)” value [3] was 55%. The “Hepatotoxicity (granulomatous hepatitis)” value [4] was 0, the “Hepatotoxicity (severe hepatitis)” value [5] was 0 and the “Hepatotoxicity (choleostasis)” value [6] was 1. The “Hepatotoxicity (association with vascular disease)” value [7] was 0, the “Hepatotoxicity (steatosis)” value [8] was 0 and the “Hepatotoxicity (benign tumour)” value [9] was 0. For the same compound, the “Hepatotoxicity (malignant tumour)” value [10] was 0, the “Hepatotoxicity (chronic liver disease)” value [11] was 0 and the “Hepatotoxicity (acute)” value [12] was 2. The “Hepatotoxicity (acute)” value [13] was 0%, the “Hepatotoxicity (cirrhosis)” value [14] was 0 and the “Hepatotoxicity (moderate)” value [15] was 9.

With `Cc1cnc(NC(=O)C2=C(O)c3ccccc3S(=O)(=O)N2C)s1` [MELOXICAM] the “Hepatotoxicity (cytolytic)” value [1] was 0, the “Hepatotoxicity (mechanism)” value [2] was “Dose-dependant” and the “Hepatotoxicity (moderate)” value ([3]; Liver) was 11.5%. The “Hepatotoxicity (granulomatous hepatitis)” value [4] was 0, the “Hepatotoxicity (severe hepatitis)” value ([5]; Liver) was 0 and the “Hepatotoxicity (choleostasis)” value [6] was 0. The “Hepatotoxicity (association with vascular disease)” value [7] was 0, the “Hepatotoxicity (steatosis)” value [8] was 0 and the “Hepatotoxicity (benign tumour)” value [9] was 0. For the same compound, the “Hepatotoxicity (malignant tumour)” value [10] was 0, the “Hepatotoxicity (chronic liver disease)” value [11] was 0 and the “Hepatotoxicity (acute)” value [12] was 1. The “Hepatotoxicity (acute)” value ([13]; Liver) was 0%, the “Hepatotoxicity (cirrhosis)” value [14] was 0 and the “Hepatotoxicity (moderate)” value [15] was 6.

In the case of `CCOC(=O)c1c(N)sc2c1CCN(Cc1ccccc1)C2` [TINORIDINE], the “Hepatotoxicity (cytolytic)” value [1] was 0, the “Hepatotoxicity (mechanism)” value [2] was “Allergic” and the “Hepatotoxicity (moderate)” value [3] was 0%. The “Hepatotoxicity (granulomatous hepatitis)” value [4] was 0, the “Hepatotoxicity (severe hepatitis)” value [5] was 0 and the “Hepatotoxicity (choleostasis)” value [6] was 0. For the same compound, the “Hepatotoxicity (association with vascular disease)” value [7] was 0, the “Hepatotoxicity (steatosis)” value [8] was 0 and the “Hepatotoxicity (benign tumour)” value [9] was 0. For the same compound, the “Hepatotoxicity (malignant tumour)” value [10] was 0, the “Hepatotoxicity (chronic liver disease)” value [11] was 0 and the “Hepatotoxicity (acute)” value [12] was 1. For the same compound, the “Hepatotoxicity (acute)” value [13] was 0%, the “Hepatotoxicity (cirrhosis)” value [14] was 0 and the “Hepatotoxicity (moderate)” value [15] was 1.

For `Nc1nc2[nH]cc(CCc3ccc(C(=O)N[C@@H](CCC(=O)O)C(=O)O)cc3)c2c(=O)[nH]1` [PEMETREXED], the “Hepatotoxicity (cytolytic)” value [1] was 0, the “Hepatotoxicity (mechanism)” value [2] was “Dose-dependant” and the “Hepatotoxicity (moderate)” value [3] was 100%. The “Hepatotoxicity (granulomatous hepatitis)” value [4] was 0, the “Hepatotoxicity (severe hepatitis)” value [5] was 0 and the “Hepatotoxicity (choleostasis)” value [6] was 0. The “Hepatotoxicity (association with vascular disease)” value [7] was 0, the “Hepatotoxicity (steatosis)” value [8] was 0 and the “Hepatotoxicity (benign tumour)” value [9] was 0. For the same compound, the “Hepatotoxicity (malignant tumour)” value [10] was 0, the “Hepatotoxicity (chronic liver disease)” value [11] was 0 and the “Hepatotoxicity (acute)” value [12] was 0. The “Hepatotoxicity (acute)” value [13] was 0%, the “Hepatotoxicity (cirrhosis)” value [14] was 0 and the “Hepatotoxicity (moderate)” value [15] was 1.
